The target in assay [1] is T1, human CCR5 (Homo sapiens, UniProt P51681).
T1 construct: expressed in transfected cells; host or cells: CHO-K1 cells, electroporated with plasmid pCKR5 (pcDNA3.1 backbone), geneticin-selected (CHO/CCR5)
The assay is described as follows: Inhibition of [125I]-RANTES binding to human CCR5 in CHO/CCR5 cells (CCR5 antagonistic activity). To be noted: Test Compound 1 μM, 100 pM [125I]-RANTES, room temperature, 40 minutes, read-out: Inhibition Rate (CCR5 binding). As to the method:
Cloning of CCR5 gene was carried out by PCR (polymerase chain reaction) from human spleen cDNA. With using 0.5 ng of spleen cDNA (Toyobo, QUICK-Clone cDNA) as template, PCR was performed in DNA Thermal Cycler 480 (Perkin-Elmer) (reaction conditions: 30 cycles of 95° C. for 1 minute, 60° C. for 1 minute, and 75° C. for 5 minutes) by adding primer set, 5'-[…]-3' (25 pmol) and 5'-[…]-3' (25 pmol), which were designed referring to nucleotide sequence of CCR5 gene reported by Samson et al. (Biochemistry, 35(11), 3362-3367 (1996)) and by using TaKaRa EX Taq (TakaraShuzo). The resultant PCR product was subjected to agarose gel. electrophoresis to collect about 1.0 kb DNA fragment, which was subjected to Original TA Cloning Kit (Funakoshi) to carry out cloning of CCR5 gene.
The plasmid obtained in the above (1) was digested with restriction enzymes XbaI (Takara Shuzo) and BamHI (Takara Shuzo) and subjected to agarose gel electrophoresis to collect about 1.0 kb DNA fragment. The DNA fragment was mixed with plasmid pcDNA3.1 (Funakoshi) for expression in animal cells, said plasmid being digested with XbaI and BamHI, and they were ligated with DNA Ligation Kit Ver.2 (Takara Shuzo). The resulting plasmid was subjected to transformation of competent cell of E. coli JM109 (Takara Shuzo) to obtain plasmid pCKR5.
CHO-K1 cells were grown in 750 ml of tissue culture flask (Becton Dickinson) using Ham's F12 medium (Nihon Pharmaceutical) containing 10% fetal calf serum (Life Tech Oriental) and took off with 0.5 g/L trypsin-0.2 g/L EDTA (Life Tech Oriental). The cells were washed with PBS (Life Tech Oriental), centrifuged (1000 rpm, 5 minutes), and suspended in PBS. With using Gene Pulser (Bio-Rad Laboratories), DNA was introduced into the cells under the conditions shown below. That is, to the cuvette of 0.4 cm gap were added 8×10^6 cells and 10 μg of plasmid pCKR5 for expression of human CCR5, and electroporation was carried out under 0.25 kV of voltage and 960 μF of capacitance. The cells were transferred into Ham's F12 medium (Nihon Pharmaceutical) containing 10% fetal calf serum, and cultivated for 24 hours. The cells were again took off and centrifuged, and suspended in Ham's F12 medium (Nihon Pharmaceutical) containing 10% fetal calf serum and 500 μg/ml of geneticin (Life Tech Oriental). The suspension was diluted to give 10^4 cells/ml of the suspension, which was inoculated on 96 well plate (Becton Dickinson) to give geneticin resistant cells. The resulting geneticin resistant cells were cultivated in 96 well plate (Becton Dickinson), and cells expressing CCR5 were selected from the geneticin resistant cells. That is, in assay buffer (Ham's F12 medium containing 0.5% BSA and 20 mM HEPES (Wako Pure Chemical, pH7.2) to which was added 200 pM of [^125 I]-RANTES (Amersham) as ligand, binding reaction was carried out at room temperature for 40 minutes, and the buffer was washed with cooled PBS. To the buffer was added 50 μl/well of 1M NaOH, and the mixture was stirred. Radioactivity was determined with γ-counter to select CHO/CCR5 cells which specifically bind to the ligand.
The CHO/CCR5 were inoculated on 96 well microplate (5×10^4 cells/well) and cultivated for 24 hours. The medium was removed by means of suction, and to each well was added assay buffer containing Test Compound (1 μM) and then 100 pM of [^125 I]-RANTES (Amersham) as ligand. Binding assay was carried out at room temperature for 40 minutes, and assay buffer was removed by means of suction. Each well was washed twice with cooled PBS, and 200 μl of Microscint-20 (Packard Instrument, Inc.) was added to each well. Radio-activity was determined with Top-Count Micro Scintillation Counter (Packard Instrument, Inc.).
According to the method described above, inhibition rate of Test Compound (whose number is referred to in the following Examples) to CCR5 binding.

Assay [2] deals with HIV-1 BA-L. Description: Inhibitory effect on HIV-1 infection to MAGI-CCR5 cell (β-galactosidase activity). The class given is cell-based. As to conditions: 100 μl of medium containing 1.6 μM Test Compound plus 100 μl of medium containing 300PFU HIV-1 BA-L; MAGI-CCR5 cells; 37° C., 2 days. On the procedure: The plasmid where β-galactosidase gene was ligated downstream of HIV-1 LTR was introduced into CD4 positive HeLa cell, to which human CCR5 was further introduced to obtain transformant MAGI-CCR5. By using said transformant MAGI-CCR5, degree of HIV-1 infection was calculated from β-galactosidase activity (blue color due to decomposition of 5-bromo-4-chloro-3-indolyl-β-D-galactopyranoside). Specifically, MAGI-CCR5 cells were suspended in DMEM medium containing 10% serum to prepare 5×10^4 cells/ml suspension. To each well of 96 well plate was inoculated 200 μl of the suspension, and the cells were cultivated at 37° C. overnight. The medium was removed by means of suction, and to the residue was added 100 μl of the above medium containing 1.6 μM of Test Compound and 100 μl of the above medium containing 300PFU of HIV-1 BA-L cells. The cells were cultivated at 37° C. for 2 days. The medium was removed by means of suction. To the residue was added 200 μl of cell fixative (PBS containing 1% formaldehyde and 0.2% glutaraldehyde), and the mixture was allowed to stand at room temperature for 5 minutes and washed twice with PBS. To the mixture was added 100 μl of staining solution (PBS containing […] and 0.4 mg/ml X-gal), and the mixture was allowed to stand at 37° C. for 50 minutes and washed twice with PBS. The number of blue cells was counted by microscope and defined as the number of cells infected with HIV-1. According to this method, inhibition rate on HIV-1 infection was determined.

T1 sequence (P51681 whole entry): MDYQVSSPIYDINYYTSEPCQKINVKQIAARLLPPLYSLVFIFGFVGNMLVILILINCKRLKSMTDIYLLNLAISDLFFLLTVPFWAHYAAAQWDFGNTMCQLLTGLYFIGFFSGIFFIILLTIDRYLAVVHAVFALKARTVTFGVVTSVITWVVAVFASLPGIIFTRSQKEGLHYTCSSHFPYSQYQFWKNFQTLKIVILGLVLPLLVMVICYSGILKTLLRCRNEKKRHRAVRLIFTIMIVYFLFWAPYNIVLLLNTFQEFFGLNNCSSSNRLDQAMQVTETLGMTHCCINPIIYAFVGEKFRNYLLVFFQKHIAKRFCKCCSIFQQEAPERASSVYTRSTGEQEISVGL

By inhibition is commonly meant the drop in the measured response relative to a control, in per cent. Consider `CCN(CC)c1ccc(-c2ccc3c(c2)C=C(C(=O)Nc2ccc(CN(C)C4CCOCC4)cc2)CCS3(=O)=O)cc1` [Compound 54, 7-(4-diethylaminophenyl)-N-[4-[[N-methyl-N-(tetrahydropyran-4-yl)amino]methyl]phenyl]-1,1-dioxo-2,3-dihydro-1-benzothiepine-4-carboxamide], for which, in assay [1], the inhibition at 1 µM amounted to 99%.

Take `CCCOc1ccc(-c2ccc3c(c2)C=C(C(=O)Nc2ccc(CN(C)C4CCOCC4)cc2)CCS3(=O)=O)cc1` [Compound 29, N-[4-[N-methyl-N-(tetrahydropyran-4-yl)aminomethyl]phenyl]-7-(4-propoxyphenyl)-1,1-dioxo-2,3-dihydro-1-benzothiepine-4-carboxamide]: the “Inhibition Rate (HIV-1 infection)” value in assay [2] was 91%. In assay [1], the inhibition at 1 µM amounted to 100%.

`CCCCOCCOc1ccc(-c2ccc3c(c2)C=C(C(=O)Nc2ccc(CN(C)C4CCOCC4)cc2)CCS3(=O)=O)cc1` [Compound 98, 7-[4-(2-butoxyethoxy)phenyl]-N-[4-[[N-methyl-N-(tetrahydropyran-4-yl)amino]methyl]phenyl]-1,1-dioxo-2,3-dihydro-1-benzothiepine-4-carboxamide]: the “Inhibition Rate (HIV-1 infection)” value in assay [2] was 91%. In addition, the inhibition at 1 µM in assay [1] was determined as 98%.

Turning to `CCOCCCc1ccc(-c2ccc3c(c2)C=C(C(=O)Nc2ccc(CN(C)C4CCOCC4)cc2)CCS3(=O)=O)cc1` [Compound 123, 7-[4-(3-ethoxypropyl)phenyl]-N-[4-[[N-methyl-N-(tetrahydro-2H-pyran-4-yl)amino]methyl]phenyl]-1,1-dioxo-2,3-dihydro-1-benzothiepine-4-carboxamide], the inhibition at 1 µM in assay [1] is 94%.

As to `CCOCCOc1ccc(-c2ccc3c(c2)C=C(C(=O)Nc2ccc(CN(C)C4CCOCC4)cc2)CCS3(=O)=O)cc1C` [Compound 129, 7-[4-(2-ethoxyethoxy)-3-methyl-phenyl]-N-[4-[[N-methyl-N-(tetrahydropyran-4-yl)amino]methyl]phenyl]-1,1-dioxo-2,3-dihydro-1-benzothiepine-4-carboxamide], the inhibition at 1 µM in assay [1] was determined as 95%.

On to `CCOCCOc1ccc(-c2ccc3c(c2)C=C(C(=O)Nc2ccc(CN(C)C4CCOCC4)cc2)CCS3(=O)=O)cc1` [Compound 84, 7-[4-(2-ethoxyethoxy)phenyl]-N-[4-[[N-methyl-N-(tetrahydropyran-4-yl)amino]methyl]phenyl]-1,1-dioxo-2,3-dihydro-1-benzothiepine-4-carboxamide], for which the inhibition at 1 µM in assay [1] stood at 97%.

As for `CCCOCCOc1ccc(-c2ccc3c(c2)C=C(C(=O)Nc2ccc(CN(C)C4CCOCC4)cc2)CCS3(=O)=O)cc1Cl` [Compound 74, 7-[3-chloro-4-(2-propoxyethoxy)phenyl]-N-[4-[[N-methyl-N-(tetrahydropyran-4-yl)amino]methyl]phenyl]-1,1-dioxo-2,3-dihydro-1-benzothiepine-4-carboxamide], the inhibition at 1 µM in assay [1] turned out to be 94%.

Take `CCCOCCOc1ccc(-c2ccc3c(c2)C=C(C(=O)Nc2ccc(CN(C)C4CCOCC4)cc2)CCS3(=O)=O)cc1OCC` [Compound 73, 7-[3-ethoxy-4-(2-propoxyethoxy)phenyl]-N-[4-[[N-methyl-N-(tetrahydropyran-4-yl)amino]methyl]phenyl]-1,1-dioxo-2,3-dihydro-1-benzothiepine-4-carboxamide]: the inhibition at 1 µM in assay [1] was 94%.

On to `CC(C)OCCOc1ccc(-c2ccc3c(c2)C=C(C(=O)Nc2ccc(CN(C)C4CCOCC4)cc2)CCS3(=O)=O)cc1` [Compound 111, 7-[4-(2-isopropoxyethoxy)phenyl]-N-[4-[[N-methyl-N-(tetrahydropyran-4-yl)amino]methyl]phenyl]-1,1-dioxo-2,3-dihydro-1-benzothiepine-4-carboxamide], for which the inhibition at 1 µM in assay [1] came out at 95%.

For `CCCc1ccc(-c2ccc3c(c2)C=C(C(=O)Nc2ccc(CN(C)C4CCOCC4)cc2)CCS3(=O)=O)cc1` [Compound 27, N-[4-[N-methyl-N-(tetrahydropyran-4-yl)aminomethyl]phenyl]-7-(4-propylphenyl)-1,1-dioxo-2,3-dihydro-1-benzothiepine-4-carboxamide], the inhibition at 1 µM in assay [1] was 100%.

Regarding `CCCOc1ccc(-c2ccc3c(c2)C=C(C(=O)Nc2ccc(CN(C)C4CCOCC4)cc2)CCS3(=O)=O)cc1OCC` [Compound 125, 7-(3-ethoxy-4-propoxyphenyl)-N-[4-[[N-methyl-N-(tetrahydro-2H-pyran-4-yl)amino]methyl]phenyl]-1,1-dioxo-2,3-dihydro-1-benzothiepine-4-carboxamide], in assay [1], the inhibition at 1 µM was 92%.

Take `CCCOCCOc1ccc(-c2ccc3c(c2)C=C(C(=O)Nc2ccc(CN(C)C4CCOCC4)cc2)CCS3(=O)=O)cc1C` [Compound 75, 7-[3-methyl-4-(2-propoxyethoxy)phenyl]-N-[4-[[N-methyl-N-(tetrahydropyran-4-yl)amino]methyl]phenyl]-1,1-dioxo-2,3-dihydro-1-benzothiepine-4-carboxamide]: in assay [1], the inhibition at 1 µM was found to be 95%.

Regarding `CCSc1ccc(-c2ccc3c(c2)C=C(C(=O)Nc2ccc(CN(C)C4CCOCC4)cc2)CCS3(=O)=O)cc1` [Compound 44, 7-[(4-ethylthio)phenyl]-N-[4-[N-methyl-N-(tetrahydropyran-4-yl)aminomethyl]phenyl]-1,1-dioxo-2,3-dihydro-1-benzothiepine-4-carboxamide], the inhibition at 1 µM in assay [1] came to 96%.

Take `CCOCCOc1c(C)cc(-c2ccc3c(c2)C=C(C(=O)Nc2ccc(CN(C)C4CCOCC4)cc2)CCS3(=O)=O)cc1C` [Compound 124, 7-[4-(2-ethoxyethoxy)-3,5-dimethylphenyl]-N-[4-[[N-methyl-N-(tetrahydro-2H-pyran-4-yl)amino]methyl]phenyl]-1,1-dioxo-2,3-dihydro-1-benzothiepine-4-carboxamide]: the inhibition at 1 µM in assay [1] turned out to be 97%.

Consider `CCOc1ccc(-c2ccc3c(c2)C=C(C(=O)Nc2ccc(CN(C)C4CCOCC4)cc2)CCS3(=O)=O)cc1` [Compound 4, 7-(4-ethoxyphenyl)-N-[4-[N-methyl-N-(tetrahydropyran-4-yl)aminomethyl]phenyl]-1,1-dioxo-2,3-dihydro-1-benzothiepine-4-carboxamide], for which the inhibition at 1 µM in assay [1] amounted to 91%.
